In PMC9735965, “Recovery of Gallium-68 and Zinc from HNO3-Based Solution by Liquid–Liquid Extraction with Arylamino Phosphonates” (Molecules, 2022):

Assay: Aqueous solubility of extractants by qNMR
Type: physicochemical
Conditions: water, thermodynamic from solid; experimentally determined; in D2O by qNMR
Method: A 1 mL volumetric flask was charged with 10–15 mg of the extractant and 1 mL of D2O. The resulting suspension was sonicated for 30 min and the content was centrifuged, filtered through a 0.45 µm syringe filter, and transferred into an NMR tube. A sealed capillary containing an external calibrant (acetanilide for ^1H qNMR and triphenylphosphine for ^31P qNMR) was inserted into the NMR tube and the solubility of extractants 1–9 was determined from their ^1H or ^31P NMR spectra using the formula: Cx = (Ix/Ical) × (Ncal/Nx) × Ccal, where I, N, and C are the integral area, number of nuclei, and the concentration of the extractant (x) and the calibrant (cal), respectively.

| Compound | solubility at 30 min [µM] |
| --- | --- |
| CCCCCCCCOP(=O)(O)C(Nc1ccccc1)c1ccccc1 (stereo not drawn) [Extractant 1, reference compound] | 220 |
| COP(=O)(O)C(Nc1ccc(C(C)(C)C)cc1)c1ccc(C(C)(C)C)cc1 (stereo not drawn) [Extractant 2] | 100 |
| CCCCCCCCOP(=O)(O)C(Nc1ccc(OC)cc1)c1cccs1 (stereo not drawn) [Extractant 3] | 250 |
| CCCCCCCCOP(=O)(O)C(Nc1ccc(C(F)(F)F)cc1)c1ccc(C(C)(C)C)cc1 (stereo not drawn) [Extractant 4] | 80 |
| CCCCCCCCOP(=O)(O)C(Nc1ccc(OC)cc1)c1ccc(C(F)(F)F)cc1 (stereo not drawn) [Extractant 5] | 40 |
| COP(=O)(O)C(Nc1ccc(C(F)(F)F)cc1)c1cc(C(F)(F)F)cc(C(F)(F)F)c1 (stereo not drawn) [Extractant 6] | 2600 |
| CCCCCCCCOP(=O)(O)C(Nc1cc(C(F)(F)F)cc(C(F)(F)F)c1)c1ccc(C(C)(C)C)cc1 (stereo not drawn) [Extractant 7] | 80 |
| COCCOCCOP(=O)(O)C(Nc1cc(C(F)(F)F)cc(C(F)(F)F)c1)c1ccc(C(F)(F)F)cc1 (stereo not drawn) [Extractant 8] | 1600 |
| COCCOCCOP(=O)(O)C(Nc1cc(C(F)(F)F)cc(C(F)(F)F)c1)c1cc(C(F)(F)F)cc(C(F)(F)F)c1 (stereo not drawn) [Extractant 9] | 1730 |
